Here are results for 7 molecules from ChEMBL document CHEMBL4321813, “Discovery of GSK3527497: A Candidate for the Inhibition of Transient Receptor Potential Vanilloid-4 (TRPV4)” (J Med Chem, 2019).

≈ marks a conversion by molar mass, not a printed value.

In data set [1] the target is T1, Transient receptor potential cation channel subfamily V member 4 (Homo sapiens, UniProt Q9HBA0). Briefly: Antagonist activity at BacMam virus expressing human TRPV4 transduced in BHK/AC9 or HEK MSR2 cells assessed as inhibition of GSK634775-induced Ca2+ flux preincubated for 10 mins followed by agonist addition by Fluo-4 AM dye based FLIPR assay. In kind it is cell-based.
T1 sequence (Q9HBA0 whole entry): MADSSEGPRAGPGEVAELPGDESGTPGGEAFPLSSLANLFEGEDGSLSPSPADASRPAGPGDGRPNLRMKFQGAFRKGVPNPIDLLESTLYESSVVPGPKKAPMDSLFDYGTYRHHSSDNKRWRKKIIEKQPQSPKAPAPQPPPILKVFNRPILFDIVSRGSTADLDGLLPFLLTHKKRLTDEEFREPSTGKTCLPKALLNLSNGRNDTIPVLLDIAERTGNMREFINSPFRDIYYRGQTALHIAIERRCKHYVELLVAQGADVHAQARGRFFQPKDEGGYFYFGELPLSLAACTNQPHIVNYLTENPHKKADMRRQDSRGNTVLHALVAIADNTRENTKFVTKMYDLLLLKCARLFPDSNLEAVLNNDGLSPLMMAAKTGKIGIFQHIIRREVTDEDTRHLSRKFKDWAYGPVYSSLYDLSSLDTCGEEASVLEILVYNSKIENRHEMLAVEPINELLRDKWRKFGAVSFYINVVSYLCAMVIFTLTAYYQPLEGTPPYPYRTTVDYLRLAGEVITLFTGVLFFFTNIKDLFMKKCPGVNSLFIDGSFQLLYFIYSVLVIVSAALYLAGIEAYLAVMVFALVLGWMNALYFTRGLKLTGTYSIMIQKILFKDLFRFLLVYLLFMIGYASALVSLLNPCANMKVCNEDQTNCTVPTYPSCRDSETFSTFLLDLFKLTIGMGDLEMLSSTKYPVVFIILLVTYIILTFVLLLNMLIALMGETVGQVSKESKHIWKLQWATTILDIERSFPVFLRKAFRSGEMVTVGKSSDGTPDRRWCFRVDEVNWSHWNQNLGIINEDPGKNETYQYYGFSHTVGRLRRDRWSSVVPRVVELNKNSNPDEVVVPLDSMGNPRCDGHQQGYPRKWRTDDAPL

Data set [2] is described as follows: Lipophilicity, log D of the compound at pH 7.4 by chromatographic method. In kind it is physicochemical. To be noted: buffer.
A short description of data set [3]: Solubility of the compound in FaSSIF measured after 4 hrs. The class given is physicochemical.
A short description of data set [4]: MRT in Sprague-Dawley rat at 1 mg/kg, iv administered as 30 mins infusion by HPLC-MS/MS analysis. The class given is ADME, organism-based. To be noted: in vivo.
Data set [5] is described as follows: Clearance in Sprague-Dawley rat at 1 mg/kg, iv administered as 30 mins infusion by HPLC-MS/MS analysis. In kind it is ADME, organism-based. To be noted: in vivo.
Data set [6] is described as follows: Volume of distribution at steady state in Sprague-Dawley rat at 1 mg/kg, iv administered as 30 mins infusion or 1 to 2 mg/kg, po by HPLC-MS/MS analysis. The class given is ADME, organism-based. To be noted: in vivo, read-out: Vdss.
The nature of data set [7]: Oral bioavailability in Sprague-Dawley rat at 1 to 2 mg/kg by HPLC-MS/MS analysis. To be noted: in vivo. In kind it is ADME, organism-based.
The nature of data set [8]: Protein binding in rat plasma assessed as unbound fraction. In kind it is ADME, cell-free.
A short description of data set [9]: Unbound clearance in Sprague-Dawley rat at 1 mg/kg, iv administered as 30 mins infusion by HPLC-MS/MS analysis. In kind it is ADME, organism-based. To be noted: in vivo, 0.5 h.
Data set [10] is described as follows: Unbound volume of distribution at steady state in Sprague-Dawley rat at 1 mg/kg, iv administered as 30 mins infusion or 1 to 2 mg/kg, po by HPLC-MS/MS analysis. The class given is ADME, organism-based. To be noted: in vivo, 0.5 h.
Data set [11] can be described thus: Ratio of Cmax to Cmin in human. In kind it is ADME.
A short description of data set [12]: Unbound AUC in human. In kind it is ADME.
Data set [13] can be described thus: Ratio of unbound clearance in Sprague-Dawley rat at 1 mg/kg, iv administered as 30 mins infusion to unbound clearance in dog. In kind it is ADME, organism-based. To be noted: in vivo, 0.5 h.
The nature of data set [14]: Mean residence time in dog. In kind it is ADME, Canis lupus familiaris. To be noted: in vivo.
The nature of data set [15]: Clearance in dog. In kind it is ADME, Canis lupus familiaris. To be noted: in vivo.
A short description of data set [16]: Dose normalized AUC in Sprague-Dawley rat at 100 mg/kg, po using crystalline solid form of sample by HPLC-MS/MS analysis. The class given is ADME, organism-based. To be noted: in vivo.
Data set [17] in a line: Oral bioavailability in Sprague-Dawley rat at 100 mg/kg using crystalline solid form of sample by HPLC-MS/MS analysis. The class given is ADME, organism-based. To be noted: in vivo.
A short description of data set [18]: Dose normalized AUC in Sprague-Dawley rat at 100 mg/kg, po using amorphous spray dried dispersion sample by HPLC-MS/MS analysis. In kind it is ADME, organism-based. To be noted: in vivo.
Data set [19] in a line: Oral bioavailability in Sprague-Dawley rat at 100 mg/kg using amorphous spray dried dispersion sample by HPLC-MS/MS analysis. The class given is ADME, organism-based. To be noted: in vivo.
Data set [20] in a line: Dose normalized AUC in Sprague-Dawley rat at 1 mg/kg, po by HPLC-MS/MS analysis. To be noted: in vivo. The class given is ADME, organism-based.
A short description of data set [21]: Oral bioavailability in Sprague-Dawley rat at 1 mg/kg by HPLC-MS/MS analysis. The class given is ADME, organism-based. To be noted: in vivo.
Data set [22] can be described thus: Apparent permeability in dog MDCK cells. The class given is ADME, cell-based, Canis lupus familiaris.
A short description of data set [23]: Volume of distribution at steady state in dog. In kind it is ADME, Canis lupus familiaris. To be noted: in vivo, read-out: Vdss.
Data set [24] in a line: Oral bioavailability in dog. To be noted: in vivo. The class given is ADME, organism-based, Canis lupus familiaris.
A short description of data set [25]: Protein binding in dog plasma assessed as unbound fraction. The class given is ADME, cell-free, Canis lupus familiaris.
Data set [26] is described as follows: Unbound clearance in dog. In kind it is ADME, Canis lupus familiaris. To be noted: in vivo.
A short description of data set [27]: Unbound volume of distribution at steady state in dog. To be noted: in vivo. In kind it is ADME, Canis lupus familiaris.
In data set [28] the target is T1, Transient receptor potential cation channel subfamily V member 4. Description: Antagonist activity at human TRPV4.
The subject of data set [29] is Rattus norvegicus. Description: Ratio of dose normalized AUC in Sprague-Dawley rat at 100 mg/kg, po using amorphous spray dried dispersion sample to dose normalized AUC in Sprague-Dawley rat at 100 mg/kg, po using crystalline solid form of sample. To be noted: in vivo. In kind it is ADME, organism-based.
Data set [30] can be described thus: Drug metabolism in rat hepatocytes assessed as GSH-mediated sulfonamide cleavage by measuring 2-amino-5-[[2-(carboxymethylamino)-1-[[2-cyano-4-(trifluoromethyl)phenyl]sulfanylmethyl]-2-oxo-ethyl]amino]-5-oxo-pentanoic acid formation by LC-MS/MS analysis. In kind it is ADME, cell-based, Hepatocyte.
Data set [31] is described as follows: Drug metabolism in rat hepatocytes assessed as rearomatization/conjugation by measuring metabolite formation by LC-MS/MS analysis. The class given is ADME, cell-based, Hepatocyte.
The nature of data set [32]: Drug metabolism in rat hepatocytes assessed as oxidation of arene oxide metabolite by measuring 2-[(3R,4S)-4-(4-cyano-3-fluoro-phenoxy)-3-hydroxy-3-(hydroxymethyl)pyrrolidin-1-yl]sulfonyl-3,4-dihydroxy-5-(trifluoromethyl)benzonitrile formation by LC-MS/MS analysis. In kind it is ADME, cell-based, Hepatocyte.

For the molecule `N#Cc1ccc(O[C@H]2CN(S(=O)(=O)c3ccccc3C#N)C[C@@]2(O)CO)cc1F`, the 50% inhibitory concentration (IC50) (in general, the concentration needed to halve the response being measured) in [1] came out at 3.8 nM. In data set [2], the chromatographic logD (in general, lipophilicity estimated from chromatographic retention) came out at 3.4. In data set [3], the concentration in solution (solubility at 4 h) came to 20 µg/mL (≈ 47.9 µM). The MRT (as a rule, the average time that molecules of a dose stay in the body) in data set [4] turned out to be 0.4 h. The clearance (in general, the volume of plasma or blood freed of the substance per unit of time) in data set [5] was determined as 39 mL/min/kg. Moreover, in data set [6], the Vd was found to be 0.9 L/kg. The bioavailability – broadly, dose-corrected exposure relative to a reference, in per cent – in data set [7] was 32%. The fraction unbound (usually the share of the substance not bound to proteins or other matrix) in [8] is 0.197. The CL free in data set [9] was 200 mL/min/kg. This molecule yielded a Vduss in data set [10] of 4.6 L/kg.
Consider `N#Cc1ccc(O[C@H]2CN(S(=O)(=O)c3ccc(C(F)(F)F)cc3)C[C@@]2(O)CO)cc1F`, for which the IC50 in [1] turned out to be 100 nM. Besides, the chromatographic logD in data set [2] was 4.5. The solubility (as a rule, the concentration that dissolves in the medium under given conditions) at 4 h in data set [3] is 5 µg/mL (≈ 10.9 µM). The molecule further gave a mean residence time MRT in data set [4] of 2 h. In [5], the clearance was found to be 50 mL/min/kg. The Vd in [6] is 5.9 L/kg. The molecule further had a bioavailability in data set [7] of 100%. Further, the fraction unbound in data set [8] was 0.033. The same molecule had a CL free in data set [9] of 1500 mL/min/kg. The molecule further yielded a Vduss in [10] of 180 L/kg.
Molecule `N#Cc1ccc(O[C@H]2CN(S(=O)(=O)c3ccc(Cl)cc3Cl)C[C@@]2(O)CO)cc1F` returned a solubility at 4 h in data set [3] of 19 µg/mL (≈ 41.2 µM). In addition, the Vd in data set [6] was determined as 3.2 L/kg. In [10], this molecule showed a Vduss of 54 L/kg. In addition, in data set [11], the Ratio came out at 15. Also, the fAUC in [12] was 240 ng·h/mL.
As to `N#Cc1ccc(O[C@H]2CN(S(=O)(=O)c3ccc(C(F)(F)F)nc3)C[C@@]2(O)CO)cc1F`, the IC50 in [1] was 175 nM. The molecule also returned a chromatographic logD in data set [2] of 4.2. In [3], the solubility at 4 h came to 98 µg/mL (≈ 212 µM). This molecule gave an MRT in [4] of 2.3 h. Moreover, in data set [5], the clearance was 31 mL/min/kg. The Vd in data set [6] was found to be 4.1 L/kg. In [7], this molecule returned a bioavailability of 100%. Also, in [8], the fraction unbound stood at 0.147. The same molecule displayed a CL free in data set [9] of 210 mL/min/kg. Moreover, the Vduss in [10] was 28 L/kg. Further, the Ratio in data set [13] is given as 13.
In the case of `N#Cc1ccc(O[C@H]2CN(S(=O)(=O)c3ccc(Cl)cn3)C[C@@]2(O)CO)cc1F`, the mean residence time MRT in data set [14] came out at 7.8 h; in [4], 1.2 h. Also, the figures for the clearance in data set [15] and in [5] were 4.1 mL/min/kg and 30 mL/min/kg, respectively. Further, the 50% inhibitory concentration (IC50) in data set [1] worked out at 34 nM. Also, the chromatographic logD in data set [2] came out at 3.4. In addition, the concentration in solution in [3] (solubility at 4 h) was 26 µg/mL (≈ 60.8 µM). In addition, the Vd in data set [6] came to 2.2 L/kg; in data set [23], 1.9 L/kg. Further, the bioavailability in data set [7] was determined as 100%; in data set [17] (Sprague-Dawley), 7%; in [19], 79%; in data set [21], 100%; in data set [24], 100%. For the same molecule, the fraction unbound in data set [8] amounted to 0.18; in [25] it was 0.34. In addition, the CL free in [9] stood at 170 mL/min/kg; in data set [26] it was 12 mL/min/kg. The Vduss in data set [10] stood at 12 L/kg; in data set [27] it was 5.5 L/kg. In addition, the AUC/dose in data set [16] was found to be 0.043 kg·h/L; in data set [18] it was 0.5 kg·h/L; in data set [20] it was 0.63 kg·h/L. Further, the Papp – broadly, a coefficient for how fast a substance crosses the barrier – in data set [22] was 0.22 ×10⁻⁶ cm/s. The Ratio in data set [13] is on record as 14.
In turn, `CC(C)Nc1nc2c(C(=O)N(C)C)c(Cl)c(Cl)cc2n1C1CCN(c2ccc(C(C)(C)C#N)cc2)CC1` returned an IC50 in [28] of 32 nM.
The molecule `N#Cc1ccc(O[C@H]2CN(S(=O)(=O)c3ccc(C(F)(F)F)cc3C#N)C[C@@]2(O)CO)cc1F` came in with a solubility at 4 h in [3] of 25 µg/mL (≈ 51.5 µM). Besides, the Vd in data set [6] amounted to 3.6 L/kg. The Vduss in [10] is 73 L/kg. Moreover, the AUC/dose in data set [16] was 0.0021 kg·h/L; in data set [18], 0.038 kg·h/L; in data set [20], 0.148 kg·h/L. The F in [17] is 1%. Besides, in [19], the bioavailability was 18%. For the same molecule, the “Ratio AUC” value in data set [29] turned out to be 18. For the same molecule, the Ratio in data set [13] is recorded as 22; in [11], 30. For the same molecule, the Drug metabolism entry in [30], in data set [31] and in [32] was “Metabolite_Detected” in each case.
